According to PubChem BioAssay (NCI):
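Interpolation was linear, between the two tested concentrations surrounding the appropriate level; five concentrations were tested over 48 hours in 96-well plates. GI50: concentration for 50% inhibition of growth. TGI is the concentration that stops growth completely.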

Key:
Assay in all cases: NCI anticancer screen, dose series, 48 h
IGROV1 ovarian = system: IGROV1 ovarian
M14 melanoma = system: M14 melanoma
U251 CNS = system: U251 CNS
SF-539 CNS = system: SF-539 CNS
SF-295 CNS = system: SF-295 CNS
HOP-62 NSCLC = system: HOP-62 NSCLC
KM12 colon = system: KM12 colon
A549 NSCLC = system: A549 NSCLC
HL-60(TB) leukemia = system: HL-60(TB) leukemia
SN12C renal = system: SN12C renal
NCI-H226 lung = system: NCI-H226 lung
T-47D breast = system: T-47D breast
MALME-3M melanoma = system: MALME-3M melanoma
MDA-MB-435 = system: MDA-MB-435
SF-268 CNS = system: SF-268 CNS
TK-10 renal = system: TK-10 renal
A498 renal = system: A498 renal
SNB-75 CNS = system: SNB-75 CNS
OVCAR-5 ovarian = system: OVCAR-5 ovarian
HCT-116 colon = system: HCT-116 colon
NCI-H23 lung = system: NCI-H23 lung
SK-MEL-2 melanoma = system: SK-MEL-2 melanoma
HT29 colon = system: HT29 colon
ACHN renal = system: ACHN renal
OVCAR-4 ovarian = system: OVCAR-4 ovarian
EKVX NSCLC = system: EKVX NSCLC
PC-3 prostate = system: PC-3 prostate
NCI-H460 lung = system: NCI-H460 lung
UACC-257 melanoma = system: UACC-257 melanoma
MDA-MB-231 breast = system: MDA-MB-231 breast
UACC-62 melanoma = system: UACC-62 melanoma
SK-OV-3 ovarian = system: SK-OV-3 ovarian
K-562 leukemia = system: K-562 leukemia
RXF 393 renal = system: RXF 393 renal
RPMI-8226 leukemia = system: RPMI-8226 leukemia
CAKI-1 renal = system: CAKI-1 renal
HCC-2998 colon = system: HCC-2998 colon
UO-31 renal = system: UO-31 renal
SK-MEL-28 melanoma = system: SK-MEL-28 melanoma
COLO 205 colon = system: COLO 205 colon
DU-145 prostate = system: DU-145 prostate
786-0 renal = system: 786-0 renal
OVCAR-8 ovarian = system: OVCAR-8 ovarian
HCT-15 colon = system: HCT-15 colon
CCRF-CEM leukemia = system: CCRF-CEM leukemia
SNB-19 CNS = system: SNB-19 CNS
OVCAR-3 ovarian = system: OVCAR-3 ovarian
NCI-H522 lung = system: NCI-H522 lung
HOP-92 NSCLC = system: HOP-92 NSCLC
MCF7 breast = system: MCF7 breast
NCI/ADR-RES ovarian = system: NCI/ADR-RES ovarian
SW-620 colon = system: SW-620 colon
SK-MEL-5 melanoma = system: SK-MEL-5 melanoma
LOX IMVI melanoma = system: LOX IMVI melanoma
BT-549 breast = system: BT-549 breast
HS 578T breast = system: HS 578T breast

## COC(=O)c1c(O)c([N+](=O)[O-])cc2c1c1c(n2Cc2ccccc2)C(=O)c2ccccc2C1=O
IGROV1 ovarian
  GI50: 35.1 µM
  TGI: > 100 µM
M14 melanoma
  GI50: 10.6 µM
  TGI: 24.1 µM
U251 CNS
  GI50: 31 µM
  TGI: > 100 µM
SF-539 CNS
  GI50: 18.3 µM
  TGI: 55.3 µM
SF-295 CNS
  GI50: 52.1 µM
  TGI: > 100 µM
HOP-62 NSCLC
  GI50: 21.3 µM
  TGI: 49.8 µM
KM12 colon
  GI50: 21.5 µM
  TGI: 78.5 µM
A549 NSCLC
  GI50: 20.4 µM
  TGI: > 100 µM
HL-60(TB) leukemia
  GI50: 25.7 µM
  TGI: > 100 µM
SN12C renal
  GI50: 25.5 µM
  TGI: 65.7 µM
NCI-H226 lung
  GI50: 26.4 µM
  TGI: 62.9 µM
T-47D breast
  GI50: 11.8 µM
  TGI: 45.8 µM
MALME-3M melanoma
  GI50: 23.4 µM
  TGI: 46 µM
MDA-MB-435
  GI50: 6.28 µM
  TGI: 28 µM
SF-268 CNS
  GI50: 8.48 µM
  TGI: 76.9 µM
TK-10 renal
  GI50: 18.7 µM
  TGI: > 100 µM
A498 renal
  GI50: 18.5 µM
  TGI: 49 µM
SNB-75 CNS
  GI50: > 100 µM
  TGI: > 100 µM
OVCAR-5 ovarian
  GI50: 28.6 µM
  TGI: 66.7 µM
HCT-116 colon
  GI50: 4.06 µM
  TGI: 17.5 µM
NCI-H23 lung
  GI50: 21.9 µM
  TGI: 84.4 µM
SK-MEL-2 melanoma
  GI50: 27.2 µM
  TGI: > 100 µM
HT29 colon
  GI50: 18.9 µM
  TGI: > 100 µM
ACHN renal
  GI50: 29.8 µM
  TGI: > 100 µM
OVCAR-4 ovarian
  GI50: 57.3 µM
  TGI: > 100 µM
EKVX NSCLC
  GI50: 22.9 µM
  TGI: 82.9 µM
PC-3 prostate
  GI50: 15.4 µM
  TGI: 53.9 µM
NCI-H460 lung
  GI50: 4.94 µM
  TGI: 27.3 µM
UACC-257 melanoma
  GI50: 41 µM
  TGI: > 100 µM
MDA-MB-231 breast
  GI50: 19.9 µM
  TGI: > 100 µM
UACC-62 melanoma
  GI50: 30.9 µM
  TGI: > 100 µM
SK-OV-3 ovarian
  GI50: > 100 µM
  TGI: > 100 µM
K-562 leukemia
  GI50: 19 µM
  TGI: 92.6 µM
RXF 393 renal
  GI50: 12.3 µM
  TGI: 61.9 µM
RPMI-8226 leukemia
  GI50: 2.32 µM
  TGI: 24.9 µM
CAKI-1 renal
  GI50: 38.2 µM
  TGI: > 100 µM
HCC-2998 colon
  GI50: 11.2 µM
  TGI: 23.2 µM
UO-31 renal
  GI50: 21.1 µM
  TGI: > 100 µM
SK-MEL-28 melanoma
  GI50: 34.9 µM
  TGI: > 100 µM
COLO 205 colon
  GI50: 2.18 µM
  TGI: 6.82 µM
DU-145 prostate
  GI50: 14.3 µM
  TGI: 27.6 µM
786-0 renal
  GI50: 15.7 µM
  TGI: 59.6 µM
OVCAR-8 ovarian
  GI50: 14.1 µM
  TGI: 53.1 µM
HCT-15 colon
  GI50: 34.6 µM
  TGI: > 100 µM
CCRF-CEM leukemia
  GI50: 15.8 µM
  TGI: > 100 µM
SNB-19 CNS
  GI50: 17.1 µM
  TGI: 65.3 µM
OVCAR-3 ovarian
  GI50: 11.5 µM
  TGI: 69.7 µM
NCI-H522 lung
  GI50: 23.3 µM
  TGI: 65.6 µM
HOP-92 NSCLC
  GI50: 8.08 µM
  TGI: 63 µM
MCF7 breast
  GI50: 5.86 µM
  TGI: 46.1 µM
NCI/ADR-RES ovarian
  GI50: 21.1 µM
  TGI: 68.5 µM
SW-620 colon
  GI50: 2.97 µM
  TGI: 11.4 µM
SK-MEL-5 melanoma
  GI50: 3.63 µM
  TGI: 14.7 µM
LOX IMVI melanoma
  GI50: > 100 µM
  TGI: > 100 µM
BT-549 breast
  GI50: 5.9 µM
  TGI: 51.5 µM
HS 578T breast
  GI50: 29.9 µM
  TGI: 92.4 µM
